Key:
PC3-PIP (PSMA+) cells = experiment: Cell uptake in PC3-PIP cells; assay type: cell-based, human; settings: PC3-PIP cells, 1 × 10^6 cells, 3.7 MBq, 2 h, 37 °C
Protocol: (§1) PC3-PIP or PC3-flu cells (1 × 10^6) were mixed with 3.7 MBq (100 μCi) of ^64Cu-cudotadipep or ^64Cu-cunotadipep and incubated at 37 °C and 5% CO2 for 2 h. Following incubation, the cells were washed with PBS twice and collected via centrifugation (2000 rpm, 5 min). Radioactivity was measured using 2480 WIZARD2 gamma counter (Perkin Elmer, Waltham, MA, USA). Percent (%) uptake was calculated using the ratio between the radioactivity of the cells and treated radioactivity.

PC3-flu (PSMA−) cells = experiment: Cell uptake in PC3-flu cells; assay type: cell-based, human; settings: 1 × 10^6 cells, 3.7 MBq, 2 h, 37 °C
Protocol: as §1

[1] = Serum stability in human serum (radio-TLC); assay type: in vitro ADME; settings: 37 °C, 2, 24 and 48 h
Protocol: (§2) The serum stabilities of ^64Cu-cudotadipep and ^64Cu-cunotadipep were evaluated in human and mouse sera for 48 h. Briefly, 10 µL ^64Cu-cudotadipep (3.7 MBq) or […] (3.7 MBq) was mixed with 90 µL human or mouse serum and then incubated at 37 °C for 48 h. At each time point (2, 24, and 48 h), a 10 µL sample was removed, mixed with 100 µL distilled water, filtered through a 0.22 µm membrane filter, and then analyzed using radio-thin layer chromatography (TLC eluent condition: 1 M NH4OAc:MeOH = 1:1). The radio-TLCs were performed using a radio-TLC imaging scanner (BioScan, Washington, DC, USA) for radiodetection.

[2] = Serum stability in mouse serum (radio-TLC); assay type: in vitro ADME; settings: 37 °C, 2, 24 and 48 h
Protocol: as §2

[3] = Biodistribution in normal BALB/c mice; assay type: in vivo, mouse; settings: tail vein
Protocol: (§3) Approximately 0.93 MBq ^64Cu-cudotadipep or ^64Cu-cunotadipep was injected via the tail vein into normal BALB/c mice or PC3-PIP tumor-bearing nude mice (n = 5/group). Normal and tumor-bearing mice were euthanized at 2, 6, 24, and 48 h following injection. Tumor and normal tissues were excised and weighed, and their radioactivity was measured using a gamma counter (2480 WIZARD2 gamma counter, Perkin Elmer, Waltham, MA, USA). The radioactivity measured in each tissue was expressed as a percentage of the injected dose per gram of tissue (%ID/g).

PC3-PIP tumor xenograft = experiment: Biodistribution in PC3-PIP tumor-bearing nude mice; assay type: in vivo, mouse; settings: tail vein
Protocol: All animal experiments followed the procedures approved by the Institutional Animal Care and Use Committee of Korea Institute of Radiological & Medical Sciences (approval No. KIRAMS2021-0044). Male BALB/c mice and athymic nude (Nu/Nu) BALB/c mice (weighing 20–25 g, 8 weeks old) were purchased from Nara Biotech (Seoul, Republic of Korea). PC3-PIP cells (1 × 10^7) were dispensed in 100 μL PBS, mixed with Matrigel, and subcutaneously implanted in the right thigh of male athymic nude (Nu/Nu) BALB/c mice. When the tumor reached 0.5–0.9 cm in diameter (2–3 weeks following implantation), biodistribution studies and PET imaging were performed.
as §3

[4] = Radiation-absorbed dose calculation (OLINDA/EXM) from normal mouse biodistribution; parameters: species or system human
Protocol: The biodistribution results of normal BALB/c mice were used to evaluate the human radiation-absorbed dose. The internal absorbed doses of ^64Cu-cudotadipep and ^64Cu-cunotadipep were evaluated using the residence time and total amount of radioactivity in the target organ of the mice. The internal absorbed dose of the mice was converted to the human dose based on the Medical Internal Radiation Dose schema, using OLINDA/EXM version 1.1 software.

O=C([O-])CN1CCN(CC(=O)[O-])CCN(CC(=O)N[C@@H](CCCCNC(=O)CCCc2ccc(I)cc2)C(=O)NCCOCCOCC(=O)N(CCCC[C@H](NC(=O)N[C@@H](CCC(=O)O)C(=O)O)C(=O)O)CC(=O)O)CC1.[64Cu+2] [^64Cu-cunotadipep]
cellular uptake (PC3-PIP (PSMA+) cells): 6.02 ± 0.05% | cellular uptake (PC3-flu (PSMA−) cells): 1.52 ± 0.03% | serum stability [1]: > 98% | serum stability [2]: > 98% | Biodistribution, Blood ([3]; 2 h): 9.51 ± 7.25 %ID/g | Biodistribution, Bone ([3]; 2 h): 1.07 ± 0.24 %ID/g | Biodistribution, Brain ([3]; 2 h): 0.26 ± 0.12 %ID/g | Biodistribution, Fat ([3]; 2 h): 1.20 ± 0.35 %ID/g | Biodistribution, Heart ([3]; 2 h): 3.17 ± 1.12 %ID/g | Biodistribution, Intestine ([3]; 2 h): 2.21 ± 0.35 %ID/g | Biodistribution, Kidney ([3]; 2 h): 53.28 ± 19.92 %ID/g | Biodistribution, Liver ([3]; 2 h): 4.38 ± 1.51 %ID/g | Biodistribution, Lung ([3]; 2 h): 5.48 ± 2.24 %ID/g | Biodistribution, Muscle ([3]; 2 h): 1.30 ± 0.42 %ID/g | Biodistribution, Spleen ([3]; 2 h): 5.07 ± 1.38 %ID/g | Biodistribution, Stomach ([3]; 2 h): 1.21 ± 0.49 %ID/g | Biodistribution, Blood ([3]; 6 h): 5.62 ± 0.95 %ID/g | Biodistribution, Bone ([3]; 6 h): 0.89 ± 0.22 %ID/g | Biodistribution, Brain ([3]; 6 h): 0.19 ± 0.02 %ID/g | Biodistribution, Fat ([3]; 6 h): 0.99 ± 0.27 %ID/g | Biodistribution, Heart ([3]; 6 h): 2.25 ± 0.33 %ID/g | Biodistribution, Intestine ([3]; 6 h): 1.69 ± 0.55 %ID/g | Biodistribution, Kidney ([3]; 6 h): 58.85 ± 6.00 %ID/g | Biodistribution, Liver ([3]; 6 h): 4.11 ± 0.53 %ID/g | Biodistribution, Lung ([3]; 6 h): 4.76 ± 0.51 %ID/g | Biodistribution, Muscle ([3]; 6 h): 1.05 ± 0.14 %ID/g | Biodistribution, Spleen ([3]; 6 h): 5.05 ± 1.56 %ID/g | Biodistribution, Stomach ([3]; 6 h): 0.92 ± 0.45 %ID/g | Biodistribution, Blood ([3]; 24 h): 1.39 ± 0.15 %ID/g | Biodistribution, Bone ([3]; 24 h): 0.60 ± 0.03 %ID/g | Biodistribution, Brain ([3]; 24 h): 0.13 ± 0.01 %ID/g | Biodistribution, Fat ([3]; 24 h): 0.63 ± 0.26 %ID/g | Biodistribution, Heart ([3]; 24 h): 1.22 ± 0.06 %ID/g | Biodistribution, Intestine ([3]; 24 h): 1.16 ± 0.24 %ID/g | Biodistribution, Kidney ([3]; 24 h): 37.40 ± 1.84 %ID/g | Biodistribution, Liver ([3]; 24 h): 5.32 ± 0.12 %ID/g | Biodistribution, Lung ([3]; 24 h): 2.53 ± 0.20 %ID/g | Biodistribution, Muscle ([3]; 24 h): 0.42 ± 0.05 %ID/g | Biodistribution, Spleen ([3]; 24 h): 2.56 ± 0.33 %ID/g | Biodistribution, Stomach ([3]; 24 h): 0.67 ± 0.22 %ID/g | Biodistribution, Blood ([3]; 48 h): 0.45 ± 0.15 %ID/g | Biodistribution, Bone ([3]; 48 h): 0.83 ± 0.10 %ID/g | Biodistribution, Brain ([3]; 48 h): 0.18 ± 0.01 %ID/g | Biodistribution, Fat ([3]; 48 h): 0.40 ± 0.10 %ID/g | Biodistribution, Heart ([3]; 48 h): 0.95 ± 0.07 %ID/g | Biodistribution, Intestine ([3]; 48 h): 0.56 ± 0.08 %ID/g | Biodistribution, Kidney ([3]; 48 h): 9.55 ± 2.33 %ID/g | Biodistribution, Liver ([3]; 48 h): 3.86 ± 0.31 %ID/g | Biodistribution, Lung ([3]; 48 h): 1.32 ± 0.13 %ID/g | Biodistribution, Muscle ([3]; 48 h): 0.45 ± 0.04 %ID/g | Biodistribution, Spleen ([3]; 48 h): 1.19 ± 0.11 %ID/g | Biodistribution, Stomach ([3]; 48 h): 0.44 ± 0.11 %ID/g | Biodistribution, Blood (PC3-PIP tumor xenograft; 2 h): 9.81 ± 3.47 %ID/g | Biodistribution, Bone (PC3-PIP tumor xenograft; 2 h): 5.71 ± 1.47 %ID/g | Biodistribution, Fat (PC3-PIP tumor xenograft; 2 h): 5.72 ± 5.53 %ID/g | Biodistribution, Heart (PC3-PIP tumor xenograft; 2 h): 4.56 ± 1.25 %ID/g | Biodistribution, Intestine (PC3-PIP tumor xenograft; 2 h): 2.97 ± 1.15 %ID/g | Biodistribution, Kidney (PC3-PIP tumor xenograft; 2 h): 65.02 ± 22.42 %ID/g | Biodistribution, Liver (PC3-PIP tumor xenograft; 2 h): 8.33 ± 2.29 %ID/g | Biodistribution, Lung (PC3-PIP tumor xenograft; 2 h): 7.72 ± 2.30 %ID/g | Biodistribution, Muscle (PC3-PIP tumor xenograft; 2 h): 2.14 ± 0.59 %ID/g | Biodistribution, Spleen (PC3-PIP tumor xenograft; 2 h): 8.58 ± 3.99 %ID/g | Biodistribution, Stomach (PC3-PIP tumor xenograft; 2 h): 2.50 ± 1.05 %ID/g | Biodistribution, Tumor (PC3-PIP tumor xenograft; 2 h): 22.61 ± 14.10 %ID/g | Biodistribution, Blood (PC3-PIP tumor xenograft; 6 h): 4.01 ± 0.94 %ID/g | Biodistribution, Bone (PC3-PIP tumor xenograft; 6 h): 1.81 ± 1.50 %ID/g | Biodistribution, Fat (PC3-PIP tumor xenograft; 6 h): 4.14 ± 1.33 %ID/g | Biodistribution, Heart (PC3-PIP tumor xenograft; 6 h): 2.59 ± 0.38 %ID/g | Biodistribution, Intestine (PC3-PIP tumor xenograft; 6 h): 2.74 ± 0.80 %ID/g | Biodistribution, Kidney (PC3-PIP tumor xenograft; 6 h): 91.48 ± 12.98 %ID/g | Biodistribution, Liver (PC3-PIP tumor xenograft; 6 h): 6.96 ± 1.00 %ID/g | Biodistribution, Lung (PC3-PIP tumor xenograft; 6 h): 5.75 ± 2.72 %ID/g | Biodistribution, Muscle (PC3-PIP tumor xenograft; 6 h): 1.44 ± 0.56 %ID/g | Biodistribution, Spleen (PC3-PIP tumor xenograft; 6 h): 6.63 ± 0.12 %ID/g | Biodistribution, Stomach (PC3-PIP tumor xenograft; 6 h): 1.42 ± 0.53 %ID/g | Biodistribution, Tumor (PC3-PIP tumor xenograft; 6 h): 35.14 ± 9.68 %ID/g | Biodistribution, Blood (PC3-PIP tumor xenograft; 24 h): 1.23 ± 0.38 %ID/g | Biodistribution, Bone (PC3-PIP tumor xenograft; 24 h): 2.81 ± 1.71 %ID/g | Biodistribution, Fat (PC3-PIP tumor xenograft; 24 h): 0.74 ± 0.20 %ID/g | Biodistribution, Heart (PC3-PIP tumor xenograft; 24 h): 1.64 ± 0.12 %ID/g | Biodistribution, Intestine (PC3-PIP tumor xenograft; 24 h): 2.38 ± 0.42 %ID/g | Biodistribution, Kidney (PC3-PIP tumor xenograft; 24 h): 50.29 ± 7.06 %ID/g | Biodistribution, Liver (PC3-PIP tumor xenograft; 24 h): 6.99 ± 0.45 %ID/g | Biodistribution, Lung (PC3-PIP tumor xenograft; 24 h): 4.58 ± 1.08 %ID/g | Biodistribution, Muscle (PC3-PIP tumor xenograft; 24 h): 0.41 ± 0.06 %ID/g | Biodistribution, Spleen (PC3-PIP tumor xenograft; 24 h): 2.79 ± 0.87 %ID/g | Biodistribution, Stomach (PC3-PIP tumor xenograft; 24 h): 1.27 ± 0.08 %ID/g | Biodistribution, Tumor (PC3-PIP tumor xenograft; 24 h): 37.13 ± 3.65 %ID/g | Biodistribution, Blood (PC3-PIP tumor xenograft; 48 h): 1.08 ± 0.27 %ID/g | Biodistribution, Bone (PC3-PIP tumor xenograft; 48 h): 3.42 ± 0.40 %ID/g | Biodistribution, Fat (PC3-PIP tumor xenograft; 48 h): 2.36 ± 1.25 %ID/g | Biodistribution, Heart (PC3-PIP tumor xenograft; 48 h): 1.91 ± 0.57 %ID/g | Biodistribution, Intestine (PC3-PIP tumor xenograft; 48 h): 1.54 ± 0.16 %ID/g | Biodistribution, Kidney (PC3-PIP tumor xenograft; 48 h): 52.07 ± 18.32 %ID/g | Biodistribution, Liver (PC3-PIP tumor xenograft; 48 h): 5.74 ± 1.83 %ID/g | Biodistribution, Lung (PC3-PIP tumor xenograft; 48 h): 3.64 ± 1.14 %ID/g | Biodistribution, Muscle (PC3-PIP tumor xenograft; 48 h): 0.80 ± 0.22 %ID/g | Biodistribution, Spleen (PC3-PIP tumor xenograft; 48 h): 3.56 ± 1.14 %ID/g | Biodistribution, Stomach (PC3-PIP tumor xenograft; 48 h): 1.14 ± 0.31 %ID/g | Biodistribution, Tumor (PC3-PIP tumor xenograft; 48 h): 28.84 ± 13.04 %ID/g | effective dose ([4]; ICRP tissue-weighting factors, OLINDA/EXM, extrapolated from mouse biodistribution): 3.00 × 10^−2 mSv/MBq | estimated radiation-absorbed dose, kidneys ([4]; adult males, extrapolated from normal BALB/c mouse biodistribution): 2.02 mGy/MBq
